Results on 21 molecules are retold here after US12595253B2, “Benzamides of pyrazolylamino-pyrimidinyl derivatives, and compositions and methods thereof” (LYNK PHARMACEUTICALS CO. LTD., priority 2019, dated 2026).

Holding throughout (type): biochemical
One assay addresses T1, JAK1 (Homo sapiens, UniProt P23458).
T1 construct: purchased Carna Biosciences
The assay can be described thus: JAK1 microfluidic kinase assay (Caliper EZ Reader II, FAM labeled peptide substrate). The procedure, abridged: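 Microfluidic mobility-shift assay on Caliper EZ Reader II, FAM-labelled peptide phosphorylation, in 50 mM HEPES, 0.01% Brij35, 10 mM MgCl2, 2 mM DTT, 1% DMSO; enzyme conditions set for 10% substrate conversion.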

In a further assay the target is T2, JAK2 (Homo sapiens, UniProt O60674).
T2 construct: purchased Carna Biosciences
T2 sequence (O60674 whole entry): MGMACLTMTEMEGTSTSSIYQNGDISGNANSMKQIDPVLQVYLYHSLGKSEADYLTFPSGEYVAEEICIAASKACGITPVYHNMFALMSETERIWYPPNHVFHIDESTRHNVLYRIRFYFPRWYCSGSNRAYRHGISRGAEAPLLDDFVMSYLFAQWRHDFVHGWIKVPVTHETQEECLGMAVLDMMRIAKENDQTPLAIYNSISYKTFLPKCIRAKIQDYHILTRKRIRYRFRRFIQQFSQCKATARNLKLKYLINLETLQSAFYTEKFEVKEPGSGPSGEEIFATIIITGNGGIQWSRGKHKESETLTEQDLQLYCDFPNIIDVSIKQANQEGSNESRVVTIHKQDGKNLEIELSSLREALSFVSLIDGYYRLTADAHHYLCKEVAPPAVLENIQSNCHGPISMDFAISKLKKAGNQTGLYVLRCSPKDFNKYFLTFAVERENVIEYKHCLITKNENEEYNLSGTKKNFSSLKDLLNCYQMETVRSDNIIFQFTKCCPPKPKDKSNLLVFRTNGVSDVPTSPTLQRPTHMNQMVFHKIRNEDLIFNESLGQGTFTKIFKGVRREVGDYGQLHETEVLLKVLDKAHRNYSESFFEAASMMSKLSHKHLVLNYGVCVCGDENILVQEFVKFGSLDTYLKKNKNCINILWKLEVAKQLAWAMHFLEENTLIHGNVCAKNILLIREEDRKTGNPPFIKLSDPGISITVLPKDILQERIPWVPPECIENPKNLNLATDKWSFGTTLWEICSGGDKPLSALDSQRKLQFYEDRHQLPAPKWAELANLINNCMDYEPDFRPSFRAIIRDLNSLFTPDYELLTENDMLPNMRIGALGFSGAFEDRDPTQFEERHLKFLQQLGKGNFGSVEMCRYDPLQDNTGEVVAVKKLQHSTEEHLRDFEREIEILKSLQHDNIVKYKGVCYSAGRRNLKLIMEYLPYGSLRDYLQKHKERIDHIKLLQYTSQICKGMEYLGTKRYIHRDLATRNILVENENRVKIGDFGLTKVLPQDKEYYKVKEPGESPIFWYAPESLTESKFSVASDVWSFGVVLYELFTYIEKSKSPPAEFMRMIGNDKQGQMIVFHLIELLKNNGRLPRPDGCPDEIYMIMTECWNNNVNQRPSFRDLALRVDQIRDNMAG
The assay can be described thus: JAK2 microfluidic kinase assay (Caliper EZ Reader II, FAM labeled peptide substrate). As to the method: (§1) Compounds were tested against JAK1, JAK2, JAK2V617F and TYK2. Assay Formats: JAK activity was determined in the reaction buffer 50 mM HEPES, 0.01% Brij35, 10 mM MgCl2, 2 mM DTT by a microfluidic assay. The phosphorylation of a FAM labeled peptide substrate was monitored in the Caliper EZ Reader II (Perkin Elmer). The assay condition for each batch of enzyme (Carna Biosciences) was optimized to obtain 10% conversion rate of peptide substrate. The test compounds were dissolved in DMSO to a stock concentration of 10 mM. 3-fold serially diluted compounds with top concentration of 5 μM were pre-incubated with JAK1, JAK2, JAK2V617F or TYK2 at indicated concentrations for 10 min at ambient temperature. The final DMSO concentration of assay mixture was 1%. […] The reaction was stopped by adding 50 mM EDTA. […] The percent inhibition was calculated by the following formula. % Inhibition=(Conversionmax−Conversionsample)/(Conversionmax−Conversionmin)*100 • Conversionmax means the conversion rate in the positive well without addition of compound • Conversionmin means the conversion rate in the well without addition of enzyme • Conversionsample means the conversion rate of test compounds The dose-response (percent inhibition) curve was plotted and IC50 values were determined by GraphPad software.

The next assay addresses T3, JAK2V617F (Homo sapiens, UniProt O60674, V617F).
T3 construct: purchased Carna Biosciences
The assay can be described thus: JAK2V617F microfluidic kinase assay (Caliper EZ Reader II, FAM labeled peptide substrate). The following applies: JAK2V617F 2.5 nM, 1 mM ATP. As to the method:
as §1

The mark [1] stands for this setting: IC50 JAK1 (5 nM) (1 m MATP), JAK1 5 nM, 1 mM ATP.
Where [2] appears, read: IC50 JAK2 ([…]) (1 mM ATP), 1 mM ATP.
The mark [3] stands for this setting: IC50 JAK2 ([…]) (Km ATP), Km ATP.

Where only a bound is given, the exact number is not on record here.

T3 sequence (O60674 whole entry V617F): as the sequence (O60674 whole entry) above, with V617F counted along it
T1 sequence (P23458 whole entry): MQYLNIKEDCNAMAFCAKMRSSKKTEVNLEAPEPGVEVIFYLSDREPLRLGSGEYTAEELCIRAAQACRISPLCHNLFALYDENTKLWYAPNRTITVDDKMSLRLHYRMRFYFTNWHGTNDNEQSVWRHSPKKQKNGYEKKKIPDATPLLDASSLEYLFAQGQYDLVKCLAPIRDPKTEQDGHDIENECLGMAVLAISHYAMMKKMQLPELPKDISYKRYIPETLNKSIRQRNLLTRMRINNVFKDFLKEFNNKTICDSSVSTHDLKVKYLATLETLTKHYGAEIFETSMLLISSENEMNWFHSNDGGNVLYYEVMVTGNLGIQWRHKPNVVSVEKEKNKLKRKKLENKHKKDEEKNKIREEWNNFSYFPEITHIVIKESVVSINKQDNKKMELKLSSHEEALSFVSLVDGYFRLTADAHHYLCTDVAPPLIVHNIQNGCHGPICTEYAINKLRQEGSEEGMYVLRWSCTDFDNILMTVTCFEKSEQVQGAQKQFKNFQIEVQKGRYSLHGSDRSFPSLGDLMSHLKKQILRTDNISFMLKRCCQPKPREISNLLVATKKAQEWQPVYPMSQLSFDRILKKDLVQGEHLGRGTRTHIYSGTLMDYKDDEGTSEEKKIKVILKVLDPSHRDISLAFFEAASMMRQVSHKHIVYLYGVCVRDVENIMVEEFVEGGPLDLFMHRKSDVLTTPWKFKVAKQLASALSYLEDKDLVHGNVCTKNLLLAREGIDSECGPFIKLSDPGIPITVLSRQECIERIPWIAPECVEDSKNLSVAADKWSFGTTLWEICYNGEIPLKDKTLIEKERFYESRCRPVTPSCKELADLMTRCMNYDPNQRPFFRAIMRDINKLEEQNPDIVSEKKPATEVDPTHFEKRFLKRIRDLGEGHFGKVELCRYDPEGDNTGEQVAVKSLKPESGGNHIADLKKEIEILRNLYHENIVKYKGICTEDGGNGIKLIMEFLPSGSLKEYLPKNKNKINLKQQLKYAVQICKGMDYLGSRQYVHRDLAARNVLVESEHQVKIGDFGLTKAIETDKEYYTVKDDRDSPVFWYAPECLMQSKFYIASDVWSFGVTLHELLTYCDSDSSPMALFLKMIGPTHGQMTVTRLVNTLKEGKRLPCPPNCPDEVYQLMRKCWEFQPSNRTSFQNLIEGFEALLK

What is called IC50 is the concentration needed to halve the response being measured. `Cc1cnc(Nc2cnn(C3CCN(C(=O)NC(C)(C)C)CC3)c2)nc1-c1ccc(C(=O)NCC#N)cc1` [Example 3, N-(tert-Butyl)-4-(4-((4-(4-((cyanomethyl)carbamoyl)phenyl)-5-methylpyrimidin-2-yl)amino)-1H-pyrazol-1-yl)piperidine-1-carboxamide]: the IC50 was 17.1 nM on JAK1 (setting [1]), less than 0.25 nM on JAK2 (setting [2]), less than 0.25 nM at JAK2 (setting [3]) and 5.26 nM at JAK2V617F.

Consider `Cc1cnc(Nc2cnn([C@H]3CC[C@@H](C#N)CC3)c2)nc1-c1ccc(C(=O)NCC(F)(F)F)cc1` [Example 86, 4-(2-((1-(Cis-4-cyanocyclohexyl)-1H-pyrazol-4-yl)amino)-5-methylpyrimidin-4-yl)-N-(2,2,2-trifluoroethyl)benzamide], for which the IC50 against JAK1 (setting [1]) is 14.3 nM; on JAK2 (setting [2]), 1.21 nM; at JAK2V617F it was 4.91 nM.

For the molecule `Cc1cnc(Nc2cnn(C3CC3)c2)nc1-c1ccc(C(=O)NCC2(C#N)CC2)cc1` [Example 93, N-((1-cyanocyclopropyl)methyl)-4-(2-((1-cyclopropyl-1H-pyrazol-4-yl)amino)-5-methylpyrimidin-4-yl)benzamide], the IC50 against JAK1 (setting [1]) is 20.1 nM; at JAK2 (setting [2]), 44.3 nM; at JAK2 (setting [3]), 1.39 nM; against JAK2V617F, 102 nM.

As to `C[C@H](C#N)NC(=O)c1ccc(-c2nc(Nc3cnn(C4CC4)c3)ncc2Cl)cc1` [Example 196, (R)-4-(5-chloro-2-((1-cyclopropyl-1H-pyrazol-4-yl)amino)pyrimidin-4-yl)-N-(1-cyanoethyl)benzamide], the IC50 at JAK1 (setting [1]) stood at 34.8 nM; on JAK2 (setting [2]) it was 41.3 nM; against JAK2V617F it was 71.6 nM.

Consider `CO[C@H]1CC[C@@H](n2cc(Nc3ncc(C)c(-c4ccc(C(=O)N[C@@H](C)C#N)cc4)n3)cn2)CC1` [Example 90, N—((S)-1-cyanoethyl)-4-(2-((1-(cis-4-methoxycyclohexyl)-1H-pyrazol-4-yl)amino)-5-methylpyrimidin-4-yl)benzamide], for which the results for the IC50 against JAK1 (setting [1]), on JAK2 (setting [2]) and against JAK2V617F were 13.1 nM, 0.47 nM and 34.3 nM, respectively.

For `Cc1cnc(Nc2cnn(CC#N)c2)nc1-c1ccc(C(=O)N[C@@H](C)C#N)cc1` [Example 40, (S)—N-(1-cyanoethyl)-4-(2-((1-(cyanomethyl)-1H-pyrazol-4-yl)amino)-5-methylpyrimidin-4-yl)benzamide], the IC50 against JAK1 (setting [1]) worked out at 19.1 nM; against JAK2 (setting [2]), 15 nM; against JAK2V617F, 92.3 nM.

Consider `Cc1cnc(Nc2cnn(C3CCN(C(=O)C4CC4(F)F)CC3)c2)nc1-c1ccc(C(=O)NCC#N)cc1` (stereo not shown) [Example 145, N-(cyanomethyl)-4-(2-((1-(1-(2,2-difluorocyclopropanecarbonyl)piperidin-4-yl)-1H-pyrazol-4-yl)amino)-5-methylpyrimidin-4-yl)benzamide], for which the IC50 against JAK1 (setting [1]) is 15.1 nM; on JAK2 (setting [2]), 0.47 nM; against JAK2V617F, 6.97 nM.

As for `Cc1cnc(Nc2cnn(C)c2)nc1-c1ccc(C(=O)N[C@H]2C[C@@H](C#N)C2)cc1` [Example 16, N-((cis)-3-Cyanocyclobutyl)-4-(5-methyl-2-((1-methyl-1H-pyrazol-4-yl)amino)pyrimidin-4-yl)benzamide], the IC50 is 124 nM on JAK1 (setting [1]), 13.6 nM at JAK2 (setting [3]) and 796 nM against JAK2V617F.

As for `Cc1cnc(Nc2cnn(C3CC3)c2)nc1-c1ccc(C(=O)N[C@@H](C)C#N)c(F)c1` [Example 129, (S)—N-(1-Cyanoethyl)-4-(2-((1-cyclopropyl-1H-pyrazol-4-yl)amino)-5-methylpyrimidin-4-yl)-2-fluorobenzamide], the IC50 is 39.9 nM against JAK1 (setting [1]), 49 nM against JAK2 (setting [2]), 1.6 nM on JAK2 (setting [3]) and 118 nM against JAK2V617F.

Regarding `Cc1cnc(Nc2cnn(C3CCCCC3)c2)nc1-c1ccc(C(=O)N[C@@H](C)C#N)cc1` [Example 89, (S)—N-(1-cyanoethyl)-4-(2-((1-cyclohexyl-1H-pyrazol-4-yl)amino)-5-methylpyrimidin-4-yl)benzamide], the IC50 against JAK1 (setting [1]) is 4.78 nM; on JAK2 (setting [2]), less than 0.25 nM; on JAK2V617F, 10.1 nM.

For `CCn1cc(Nc2ncc(Cl)c(-c3ccc(C(=O)N[C@@H](C)C#N)cc3)n2)cn1` [Example 229, (S)-4-(5-Chloro-2-((1-ethyl-1H-pyrazol-4-yl)amino)pyrimidin-4-yl)-N-(1-cyanoethyl)benzamide], the values for the IC50 on JAK1 (setting [1]), on JAK2 (setting [2]) and against JAK2V617F were 3.68 nM, 1.68 nM and 14.1 nM, respectively.

Take `Cc1cnc(Nc2cnn(C3CCN(S(C)(=O)=O)CC3)c2)nc1-c1ccc(C(=O)NCC2(C#N)CC2)cc1` [Example 159, N-((1-cyanocyclopropyl)methyl)-4-(5-methyl-2-((1-(1-(methylsulfonyl)piperidin-4-yl)-1H-pyrazol-4-yl)amino)pyrimidin-4-yl)benzamide]: the values for the IC50 at JAK1 (setting [1]), against JAK2 (setting [2]) and at JAK2V617F were 24.1 nM, 4.82 nM and 36.7 nM, respectively.

For the molecule `Cc1cnc(Nc2cnn(C3CCN(CC(F)(F)F)CC3)c2)nc1-c1ccc(C(=O)NCC#N)cc1` [Example 22, N-(Cyanomethyl)-4-(5-methyl-2-((1-(1-(2,2,2-trifluoroethyl)piperidin-4-yl)-1H-pyrazol-4-yl)amino)pyrimidin-4-yl)benzamide], the IC50 was 2.37 nM on JAK1 (IC50 JAK1 (10 nM) (Km ATP), JAK1 10 nM, Km ATP); 1.59 nM on JAK2 (setting [2]); 0.43 nM against JAK2 (setting [3]); 46.1 nM on JAK2V617F.

For `CCCn1cc(Nc2ncc(Cl)c(-c3ccc(C(=O)N[C@@H](C)C#N)cc3)n2)cn1` [Example 227, (S)-4-(5-Chloro-2-((1-propyl-1H-pyrazol-4-yl)amino)pyrimidin-4-yl)-N-(1-cyanoethyl)benzamide], the IC50 worked out at 4.08 nM against JAK1 (setting [1]), 3.14 nM against JAK2 (setting [2]) and 17.6 nM at JAK2V617F.

In the case of `Cn1cc(Nc2ncc(Cl)c(-c3ccc(C(=O)NCC(C)(C)C#N)cc3)n2)cn1` [Example 122, 4-(5-Chloro-2-((1-methyl-1H-pyrazol-4-yl)amino)pyrimidin-4-yl)-N-(2-cyano-2-methylpropyl)benzamide], the results for the IC50 against JAK1 (setting [1]), on JAK2 (setting [3]) and against JAK2V617F were 19.3 nM, 1.1 nM and 73.9 nM, respectively.

On to `Cc1cnc(Nc2cnn(C3CCN(C(=O)C4(C(F)(F)F)CC4)CC3)c2)nc1-c1ccc(C(=O)NCC#N)cc1` [Example 115, N-(Cyanomethyl)-4-(5-methyl-2-((1-(1-(1-(trifluoromethyl)cyclopropanecarbonyl)piperidin-4-yl)-1H-pyrazol-4-yl)amino)pyrimidin-4-yl)benzamide], for which the IC50 at JAK1 (setting [1]) is 20.8 nM; against JAK2 (setting [2]), less than 0.25 nM; at JAK2 (setting [3]) it was less than 0.25 nM; against JAK2V617F it was 2.06 nM.

Consider `Cc1cnc(Nc2cnn([C@H]3CC[C@H](C#N)CC3)c2)nc1-c1ccc(C(=O)NCC(F)(F)F)cc1` [Example 87, 4-(2-((1-(Trans-4-cyanocyclohexyl)-1H-pyrazol-4-yl)amino)-5-methylpyrimidin4-yl)-N-(2,2,2-trifluoroethyl)benzamide], for which the IC50 against JAK1 (setting [1]) was 9 nM; at JAK2 (setting [2]), less than 0.25 nM; against JAK2V617F, 0.65 nM.

As to `Cc1cnc(Nc2cnn(C3CC3)c2)nc1-c1ccc(C(=O)N[C@@H](C)C#N)nc1` [Example 164, (S)—N-(1-cyanoethyl)-5-(2-((1-cyclopropyl-1H-pyrazol-4-yl)amino)-5-methylpyrimidin-4-yl)picolinamide], the IC50 against JAK1 (setting [1]) was 36.6 nM; against JAK2 (setting [2]), 89.3 nM; on JAK2V617F, 142 nM.

Take `C[C@@H](C#N)NC(=O)c1ccc(-c2nc(Nc3cnn(C4CC4)c3)ncc2Cl)cc1F` [Example 137, (S)-4-(5-Chloro-2-((1-cyclopropyl-1H-pyrazol-4-yl)amino)pyrimidin-4-yl)-N-(1-cyanoethyl)-2-fluorobenzamide]: the IC50 was 37 nM on JAK1 (setting [1]), 46.4 nM against JAK2 (setting [2]), 2.1 nM at JAK2 (setting [3]) and 92.3 nM against JAK2V617F.

As for `Cc1cnc(Nc2cnn(C3CCOCC3)c2)nc1-c1ccc(C(=O)N2CC(C#N)C2)cc1` [Example 31, 1-(4-(5-Methyl-2-((1-(tetrahydro-2H-pyran-4-yl)-1H-pyrazol-4-yl)amino)pyrimidin-4-yl)benzoyl)azetidine-3-carbonitrile], the IC50 against JAK1 (setting [1]) is 235 nM; on JAK2 (setting [2]), 71.7 nM; at JAK2 (setting [3]), 2.07 nM; against JAK2V617F it was 131 nM.

In the case of `CC(C)n1cc(Nc2ncc(Cl)c(-c3ccc(C(=O)N[C@@H](C)C#N)cc3)n2)cn1` [Example 228, (S)-4-(5-Chloro-2-((1-isopropyl-1H-pyrazol-4-yl)amino)pyrimidin-4-yl)-N-(1-cyanoethyl)benzamide], the IC50 at JAK1 (setting [1]) was found to be 5.89 nM; on JAK2 (setting [2]), 0.39 nM; against JAK2V617F, 22 nM.
